# Measurements reported in patent publication US5719291A, “Cyclohexane derivatives” (Hoffmann-La Roche Inc., priority 1991, dated 1998).
# Counter-ions that a name gives are not always drawn. Like-named read-outs stand apart in the source and are kept apart here.
# What was measured:
# Aspergillus fumigatus = test: In vitro antifungal activity, MIC (Method A); format: cell-based; settings: 3 days, 27° C.; for MIC: Aspergillus fumigatus, 72 h; for Antifungal activity MIC: 1×10^5 cells/ml, pH 7.0
# Method: (§1) The in vitro antifungal activities of representative compounds of the present invention were measured by determining the minimal inhibitory concentration (MIC), which is the concentration of an antifungal at which no fungal growth can be observed.
# (§2) The MICs were determined by the microbroth dilution procedure according to NCCLS with the following minor modifications (Galgiani et al., Antimicrob. Agents Chemother., 33, 731 (1989). The medium was solidified with 0.2% low melting point agarose and buffered to pH 7.0 with 0.25%: K2 HPO4 in Yeast Nitrogen Base (Difco Lab.). Inoculum size was 1×10^5 cells/ml, and incubation was carried out for 3 days at 27° C. The MICs ([…]) are shown in Table 1. The reference compound is compound (IA) in U.S. Pat. No. 4,952,604. The compounds used are identified by reference to the Examples in which they were prepared.
# (§3) The in vitro antifungal activities of the representative compounds of the present invention shown in Table 1 and Table 2 were measured by determining the minimal inhibitory concentrations (MIC: Method A) or 80% growth inhibition concentration (IC80 : Method B) respectively. MIC is defined as the concentration of an antifungal at which growth of fungi is not observed and IC80 is the concentration where cell turbidity measured at OD630 is reduced by 80%.
# (§4) Antifungal activities were determined by either method A or B (see below) using microtest plates according NCCLS with minor modifications (Galgiani et at., Antimicrob. Agents Chemother. 33, 731 (1989)).
# (§5) (Method A) The medium was solidified with 0.2% low melting point agarose and buffered to pH 7.0 with 0.25% K2 HPO4 in Yeast Nitrogen Base (Difco Lab.). Inoculum size was 1×10^5 cells/ml, and incubation was carried out for 3 days at 27° C. The reference compound is compound (IA) in U.S. Pat. No. 4,952,604.
# Candida albicans = test: In vitro antifungal activity, MIC (Method A); format: cell-based; settings: 3 days, 27° C.; for MIC: Candida albicans, 72 h; for Antifungal activity MIC: 1×10^5 cells/ml, pH 7.0
# Method: as §1, §2, §3, §4, §5
# Cryptococcus neoformans = test: In vitro antifungal activity, MIC (Method A); format: cell-based; settings: 3 days, 27° C.; for MIC: Cryptococcus neoformans, 72 h; for Antifungal activity MIC: 1×10^5 cells/ml, pH 7.0
# Method: as §1, §2, §3, §4, §5
# [1] = Acute toxicity (LD50) by oral administration in mice; format: in vivo
Molecule,"MIC (Aspergillus fumigatus; pH 7, Aspergillus fumigatus CF1003, 1×10^5 cells/ml) [µg/mL]","MIC (Aspergillus fumigatus; pH 7, Aspergillus fumigatus CF1004, 1×10^5 cells/ml) [µg/mL]","MIC (Aspergillus fumigatus; pH 7, Aspergillus fumigatus CF1023, 1×10^5 cells/ml) [µg/mL]","MIC (Candida albicans; pH 7, Candida albicans CY1002, 1×10^5 cells/ml) [µg/mL]","MIC (Candida albicans; pH 7, Candida albicans CY1005, 1×10^5 cells/ml) [µg/mL]","MIC (Candida albicans; pH 7, Candida albicans CY3003, 1×10^5 cells/ml) [µg/mL]","MIC (Cryptococcus neoformans; pH 7, Cryptococcus neoformans CY1057, 1×10^5 cells/ml) [µg/mL]","MIC (Cryptococcus neoformans; pH 7, Cryptococcus neoformans CY1059, 1×10^5 cells/ml) [µg/mL]","MIC (Cryptococcus neoformans; pH 7, Cryptococcus neoformans CY1061, 1×10^5 cells/ml) [µg/mL]","LD50 ([1]; mouse, in vivo, read-out: LD50) [mg/kg]",Antifungal activity MIC (Aspergillus fumigatus; Aspergillus fumigatus CF1003) [µg/mL],Antifungal activity MIC (Aspergillus fumigatus; Aspergillus fumigatus CF1004) [µg/mL],Antifungal activity MIC (Aspergillus fumigatus; Aspergillus fumigatus CF1023) [µg/mL],Antifungal activity MIC (Candida albicans; Candida albicans CY1002) [µg/mL],Antifungal activity MIC (Candida albicans; Candida albicans CY1005) [µg/mL],Antifungal activity MIC (Candida albicans; Candida albicans CY3003) [µg/mL],Antifungal activity MIC (Cryptococcus neoformans; Cryptococcus neoformans CY1057) [µg/mL],Antifungal activity MIC (Cryptococcus neoformans; Cryptococcus neoformans CY1059) [µg/mL],Antifungal activity MIC (Cryptococcus neoformans; Cryptococcus neoformans CY1061) [µg/mL],LD50 [1]
"CCCCCCC/C=C/[C@@H]1OC[C@H](C)[C@H](OC)[C@H]1OC(=O)CN [Example 4, (2S,3R,4S,5S)-4-methoxy-5-methyl-2-[(E)-1-nonenyl]-tetrahydro-2H-pyran-3-ylglycinate trifluoroacetic acid salt]",3.13,3.13,1.56,100,50,50,3.13,6.25,12.5,> 500,–,–,–,–,–,–,–,–,–,–
"(2S,3R,4S,5S)-5-methyl-2-[(E)-1-nonenyl]-4-propoxy-tetrahydro-2H-pyran-3-ylglycinate trifluoroacetic acid salt [Example 21]",–,–,–,–,–,–,–,–,–,–,12.5,6.25,12.5,100,50,100,12.5,12.5,25,more than 500 mg/kg
